Experimental data reported in US7544703B2, “Cyclic compound having 4-pyridylalkylthio group having substituted or unsubstituted amino group introduced therein” (Santen Pharmaceutical Co., Ltd., priority 2004, dated 2009).
Structures can show the parent of a compound that is named as a salt.

Legend:
[1] = tested on: adjuvant arthritis models in rats; experiment: Paw edema inhibitory action test using adjuvant arthritis models in rats; type: in vivo; details: 504 h; Lewis rat, adjuvant-untreated (secondary inflammation) paw, day 21; 10 mg/kg/day oral once a day, day 0 to day 20; average of 8 rats per group; read-out: Paw edema inhibition rate (%)
Description: A paw edema inhibitory action test of the compounds of the present invention was performed using an adjuvant arthritis model in rats, which is one of the widely-used methods of evaluating in vivo antiarthritis effects of drugs.
As one of the widely-used methods of evaluating antiarthritic effects of drugs, a paw edema inhibitory action test using adjuvant arthritis models in rats is known. Accordingly, a paw edema inhibitory action test of the compounds of the present invention was performed, the paw edema inhibition rate was calculated, and the antiarthritic effect of each of the compounds of the present invention was evaluated using the obtained rate as an index.
A 1% aqueous methyl cellulose solution was added to each test compound to suspend it, whereby a 2 mg/mL test compound suspension was prepared.
Liquid paraffin was added to Mycobacterium butyricum to suspend it, whereby 6 mg/mL adjuvant was prepared.
• 1) The adjuvant (0.1 mL) was injected subcutaneously into a left hind paw sole of each rat (male, 9 weeks of age, Lewis rat) to induce arthritis. • 2) From the adjuvant injection day (i.e. on day 0) to day 20, the test compound suspension (10 mg/kg/day) was orally administered once a day consecutively. • 3) On the adjuvant injection day, day 1, day 4, day 7, day 11, day 14, day 18 and day 21, each paw volume of both hind paws was measured with a plethysmometer. • 4) A test was performed in the same manner as in 1) to 3) except that the 1% aqueous methyl cellulose solution was used instead of the test compound suspension, and the result was used as a control. (Method of Evaluation)
Each paw edema inhibition rate of paw edema in an adjuvant-untreated paw (secondary inflammation paw) in each test compound administration group to paw edema in a secondary inflammation paw in a control group was calculated, and the antiarthritic effect of each of the compounds of the present invention was evaluated using the obtained rate as an index.
The paw edema rate was calculated according to the following calculation equation 1, and then the paw edema inhibition rate (the average of 8 rats per group), which was used as an index of the antiarthritic effect, was calculated according to the calculation equation 2. Paw edema rate (%)=(Paw volume after adjuvant treatment/paw volume before adjuvant treatment)×100 (Calculation Equation 1) Paw edema inhibition rate (%)=100−{(Sx−100)/(So−100)}×100 (Calculation Equation 2) So: Paw edema rate of control group Sx: Paw edema rate of test compound suspension administration group (Test Results and Discussion)

B16 cells = experiment: Tumor growth inhibitory action test using cancer models in mice (B16 cells); type: in vivo; details: C57BL/6N mouse, B16 cells intradermal; 100 mg/kg/day oral once a day, day 0 to day 10; average of 9 mice per group; read-out: Tumor tissue weight inhibition rate (%)
Description: A tumor growth inhibitory action test of the compounds of the present invention was performed using a tumor growth model in mice, which is one of the widely-used methods of evaluating in vivo anticancer effects of drugs.
As one of the widely-used methods of evaluating anticancer effects of drugs, a tumor growth inhibitory action test using cancer models in mice has been reported in Cancer Res., 59, 5209-5218 (1999). According to the method described in the above-mentioned document, a tumor growth inhibitory action test of the compounds of the present invention was performed, the tumor tissue weight inhibition rate was calculated, and the anticancer effect of each of the compounds of the present invention was evaluated using the obtained rate as an index.
A 1% aqueous methyl cellulose solution was added to each test compound to suspend it with a sonicator, whereby a 10 mg/mL test compound suspension was prepared.
Physiological saline was added to B16 cells, whereby a 3.3×10^7 cells/mL B16 cell suspension was prepared.
• 1) The back of each mouse (female, 6 weeks of age, C57BL/6N mouse) was depilated using a depilatory under Nembutal anesthesia. • 2) Several days after the depilation, the B16 cell suspension (300 μL) was injected intradermally into the back of the mouse under Nembutal anesthesia. • 3) From the B16 cell injection day (i.e. on day 0) to day 10, the test compound suspension (100 mg/kg/day) was orally administered once a day consecutively. • 4) Ten days after the injection of the cells, the mouse was euthanized with CO2 gas. • 5) A tumor tissue was enucleated from the mouse, and the weight of the tumor tissue was measured with an electronic balance. • 6) A test was performed in the same manner as in 1) to 5) except that the 1% aqueous methyl cellulose solution was used instead of the test compound suspension, and the result was used as a control. (Calculation of Tumor Tissue Weight Inhibition Rate)
A tumor tissue weight inhibition rate (the average of 9 mice per group), which was used as an index of anticancer effect, was calculated according to the following calculation equation. Tumor tissue weight inhibition rate (%)=100−(Mx/Mo)×100 (Calculation Equation) Mo: Tumor tissue weight of control group Mx: Tumor tissue weight of test compound solution administration group (Test Results and Discussion)

[2] = tested on: HUVEC (normal human umbilical vein endothelial cells); experiment: VEGF-induced HUVEC proliferation: cell proliferation inhibitory action test; type: cell-based; details: 72 h, 5 μL of 20 μg/mL test compound solution per well, WST-8 absorbance at 450 nm three days after VEGF addition, read-out: Cell proliferation inhibition rate (%);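 note: each well holds 100 µL cell suspension before compound addition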
Description: A cell proliferation inhibitory action test of the compounds of the present invention was performed using a VEGF-induced HUVEC proliferation evaluation system (HUVEC stands for normal human umbilical vein endothelial cells), which is one of the widely-used methods of evaluating in vitro angiogenesis inhibitory effects of drugs. As one of the widely-used methods of evaluating angiogenesis inhibitory effects of drugs, a cell proliferation inhibitory action test using a VEGF-induced HUVEC proliferation reaction evaluation system has been reported in Cancer Res., 59, 99-106 (1999). According to the method described in the above-mentioned document, a cell proliferation inhibitory action test of the compounds of the present invention was performed, the cell proliferation inhibition rate was calculated, and the angiogenesis inhibitory effect of each of the compounds of the present invention was evaluated using the obtained rate as an index. Each test compound was dissolved in dimethyl sulfoxide (hereinafter abbreviated as DMSO), and the obtained solution was diluted with a commercially available phosphoric acid buffer solution (hereinafter abbreviated as PBS), whereby a 20 μg/mL test compound solution was prepared. HUVEC was suspended in a 0.5% fetal bovine serum (hereinafter abbreviated as FBS)-containing F12K medium, whereby a 2×10^4 cells/mL HUVEC suspension was prepared. VEGF was dissolved in 0.1% bovine serum albumin-containing PBS, and the obtained solution was diluted with the 0.5% FBS-containing F12K medium, whereby a 400 ng/mL VEGF solution was prepared. • 1) The HUVEC suspension was inoculated in an amount of 100 μL into each well of a 96-well plate coated with type I collagen (2×10^3 cells per well). • 2) One day after the inoculation, the test compound solution was added in an amount of 5 μL per well. • 3) One hour after the addition of the test compound solution, the VEGF solution was added in an amount of 5 μL per well. • 4) Three days after the addition of the VEGF solution, WST-8 assay kit (Dojin Chemical Co., Ltd.) was added in an amount of 10 μL per well. • 5) After 3 hours, the above-mentioned plate was attached to an absorptiometer (Multilabel Counter ARVO), and an absorbance at 450 nm of each well suspension (hereinafter referred to as test compound suspension) was measured. • 6) A test was carried out in the same manner as in the above 1) to 5) except that 1.0% DMSO was used instead of the test compound solution. The result was used as a control. Incubation was carried out under conditions of 37° C., 5% carbon dioxide and […] in an incubator throughout the above-mentioned test steps. The cell proliferation inhibition rate (%), which was used as an index of an angiogenesis inhibitory effect, was calculated according to the following calculation equation. Cell proliferation inhibition rate (%)=100−{(Absorbance of test compound suspension−A)/(absorbance of control−A)}×100 (Calculation Equation) A: Absorbance of only cell suspension (cell+medium) (Test Results and Discussion)

[3] = tested on: choroidal neovascularization models in rats; experiment: Neovascularization incidence test using laser-induced choroidal neovascularization models in rats; type: in vivo; details: 168 h; Brown Norway rat, krypton laser photocoagulation; 30 mg/kg/day oral once a day for 7 days; fluorescein fundus photography on day 7; average of 3 to 4 rats and 6 to 8 eyes; read-out: Ratio of neovascularization incidence rate (% of Control)
Description: A neovascularization incidence test of the compounds of the present invention was performed using a choroidal neovascularization model in rats, which is one of the widely-used methods of evaluating in vivo choroidal neovascularization inhibitory effects of drugs.
As one of the widely-used methods of evaluating choroidal neovascularization inhibitory effects of drugs, a neovascularization incidence test using choroidal neovascularization models in rats was reported in Graefe's Arch. Cli. Exp. Ophthalmol., 235, 313-319 (1997). According to the method described in the above-mentioned document, a neovascularization incidence test of the compounds of the present invention was performed, the ratio of neovascularization incidence rate of each of the compounds of the present invention administration groups to a neovascularization incidence rate of vehicle administration group (control group) was calculated, and the choroidal neovascularization inhibitory effect of each of the compounds of the present invention was evaluated using the obtained ratio as an index.
A 1% aqueous methyl cellulose solution was added to each test compound to suspend it, whereby a 6 mg/10 mL test compound suspension was prepared.
• 1) A 7:1 mixed solution (1 mL/kg) of a 5% ketamine hydrochloride injection and a 2% xylazine hydrochloride injection was administered intramuscularly to rats (Brown Norway male rat, 8 weeks of age, weight: 200 to 250 g) to anesthetize them systemically. • 2) A tropicamide-phenylephrine hydrochloride ophthalmic solution (trade name: Mydrin-P) was instilled into eyes to cause mydriasis, and then photocoagulation was performed in a Bruch's membrane of each rat using a krypton laser photocoagulation apparatus.
The laser photocoagulation was performed at 8 spots per eye sparsely avoiding thick retinal vessels in a posterior section of ocular fundus and focusing on the deep layer of the retina. Photocoagulation conditions were adjusted to 100 μm of spot size, 100 mW of intensity and 0.1 sec. dulation. • 3) After the photocoagulation, the ocular fundus was photographed to confirm photocoagulation (laser irradiation) sites. (Method of Test and Method of Measurement) • 1) From the laser photocoagulation day (i.e. on day 0) to day 6, the test compound suspension (30 mg/kg/day) was administered orally once a day for 7 consecutive days. • 2) As the vehicle administration group (control group), a test was performed in the same manner as in 1) except that the 1% aqueous methyl cellulose solution was used instead of the test compound suspension, and the result was used as a control. (Method of Evaluation) • 1) On day 7 after the photocoagulation, 0.1 mL of a 10% aqueous fluorescein solution was injected into a tail vein of the rat, and fluorescein fundus photography was performed. • 2) Next, in the fluorescein fundus photography, a spot where fluorescence leak was not observed was judged as negative, and a spot where fluorescence leak was observed was judged as positive. Photocoagulation sites where a little fluorescence leak was observed were judged as positive when two such sites are present. • 3) The neovascularization incidence rate was calculated according to the calculation equation 1. The ratio of the neovascularization incidence rate of the test compound administration group to that of the vehicle administration group was calculated according to the calculation equation 2 using the neovascularization incidence rate of the respective administration groups. […]

Q: Which inhibition in vivo at 10 mg/kg/day [1] does the source give for CNc1cc(CSc2ncccc2C(=O)Nc2cc(C)cc(C)c2)ccn1 [Compound 3-6, N-(3,5-Dimethylphenyl)-2-(2-methylaminopyridin-4-ylmethylthio)pyridine-3-carboxamide monohydrochloride] here?
A: 33%

Q: And the inhibition in vivo at 100 mg/kg/day (B16 cells)?
A: 71%

Q: And the inhibition at 20 µg/mL (stock) [2]?
A: 100%

Q: Which results are given for CC(=O)Nc1cc(CSc2ncccc2C(=O)Nc2cccc(C)c2)ccn1 [Compound 4-20, 2-(2-Acetylaminopyridin-4-ylmethylthio)-N-(3-methylphenyl)pyridine-3-carboxamide]?
A: response vs control in vivo at 30 mg/kg/day [3]: 22%; inhibition in vivo at 100 mg/kg/day (B16 cells): 84%

Q: Which results are given for CC(=O)N1CCN(c2cc(CSc3ncccc3C(=O)Nc3cc(C)cc(C)c3)ccn2)CC1 [Compound 1-6, 2-[2-(4-Acetylpiperazin-1-yl)pyridin-4-ylmethylthio]-N-(3,5-dimethylphenyl)pyridine-3-carboxamide]?
A: response vs control in vivo at 30 mg/kg/day [3]: 38%; inhibition in vivo at 100 mg/kg/day (B16 cells): 42%; inhibition at 20 µg/mL (stock) [2]: 100%
